According to US5976875A, “Diacylglycerol kinase isoforms epsilon and zeta and methods of use thereof” (priority 1997, dated 1999):
Where two headings read alike, the source gives them in different places.

Experiments:
DGK.zeta. [1] = biological target: T1, DGK.zeta. (Homo sapiens, UniProt Q13574); test: DAG kinase assay, homogenates of DGK.zeta.-transfected COS-7 cells; format: biochemical; conditions: for nmol phosphatidic acid/mg/h (DAG substrate specificity of DGK.zeta.): each diacylglycerol used as substrate, Table I
T1 construct: The DGK.zeta. cDNA was expressed in pcDNA 1/AMP (Invitrogen) in the foward orientation; expressed in transfected cells; host or cells: COS-7
T1 sequence (Q13574 whole entry): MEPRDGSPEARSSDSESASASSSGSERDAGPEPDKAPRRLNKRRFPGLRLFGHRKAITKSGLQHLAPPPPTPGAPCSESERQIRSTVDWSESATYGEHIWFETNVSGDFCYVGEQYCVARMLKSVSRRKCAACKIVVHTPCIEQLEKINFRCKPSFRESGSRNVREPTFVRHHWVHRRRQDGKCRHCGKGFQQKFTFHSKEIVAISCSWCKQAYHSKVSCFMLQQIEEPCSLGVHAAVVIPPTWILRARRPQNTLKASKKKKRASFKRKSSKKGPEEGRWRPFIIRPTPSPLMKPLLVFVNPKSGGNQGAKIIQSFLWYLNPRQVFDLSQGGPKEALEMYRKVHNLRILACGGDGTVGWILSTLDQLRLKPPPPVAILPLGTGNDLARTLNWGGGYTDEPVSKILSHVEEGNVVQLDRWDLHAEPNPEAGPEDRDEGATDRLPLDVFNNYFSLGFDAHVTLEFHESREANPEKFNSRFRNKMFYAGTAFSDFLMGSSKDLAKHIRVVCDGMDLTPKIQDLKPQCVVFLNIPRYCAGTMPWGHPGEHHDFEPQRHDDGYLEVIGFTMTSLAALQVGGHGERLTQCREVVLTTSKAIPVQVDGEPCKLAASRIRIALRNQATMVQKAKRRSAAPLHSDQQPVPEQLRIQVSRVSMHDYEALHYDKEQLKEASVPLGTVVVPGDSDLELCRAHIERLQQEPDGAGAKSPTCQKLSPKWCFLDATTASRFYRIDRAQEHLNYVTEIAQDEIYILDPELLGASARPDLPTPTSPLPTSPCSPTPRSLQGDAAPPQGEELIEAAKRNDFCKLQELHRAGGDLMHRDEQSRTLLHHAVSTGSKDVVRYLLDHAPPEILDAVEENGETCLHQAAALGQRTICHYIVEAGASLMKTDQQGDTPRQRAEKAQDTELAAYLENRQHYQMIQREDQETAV
Protocol: (§1) COS-7 Transfection--The DGK.zeta. cDNA was expressed in pcDNA 1/AMP (Invitrogen) in the foward orientation. Each p35 dish containing COS-7 cells at 60-80% confluence was transfected with 1 μg of plasmid DNA and 5 μl of LipofectAMINE according to manufacturer specifications (Life Technologies Inc.). The cells were harvested by washing with ice-cold Hanks' balanced salt solution (Ca^2+ - and […] -free) and were scraped into resuspension buffer (20 mM Tris-HCl, pH 7.4, 0.25 M sucrose, 1 mM EDTA, 4 mM EGTA, 1 mM dithiothreitol, 1 mM pheylmethylsulfonyl fluoride, 20 μg/ml each leupeptin, pepstain, aprotinin, and soybean trypsin inhibitor) 48 h following transfection. All homogenates were frozen on dry ice and stored at -70° C. until assayed.
(§2) DAG Kinase Assay--Cell homogenates were sonicated twice with 5 watts for 5 at 4° C. The protein concentration of each cell homogenate was measured following trichloracetic acid precipitation utilizing the BCA protein assay reagent (Pierce). Each assay contained 50 mM MOPS, pH 7.2, 100 mM NaCl, 20 mM MgCl2, 1 mM EGTA, 1 mM dithiothreitol, 2 mM 1,2-dieleoyl-an-glycerol, 3.5 mM phosphatidylserine, 75 mM octyl-β-glucopyranoside, 500 μM [γ^32 ]ATP, and 0-20 μg of cell homogenate in a volume of 200 μl. For substrate specificity experiments, various diacylglycerol species were substituted for 1,2-dioleoyl-an-glycerol. The reactions were initiated by the addition of ATP (20-30 μCi/μmol), were incubated for 10 min. At 24° C., and were terminated by the addition of 200 μl of 1% perchloric acid. Then, to each tube, we added 1.0 ml of MeOH, 1.0 ml of […], 500 μl of 1% perchloric acid, and 50 μg of phosphatidic acid, vortexed them well, and centrifuged them for 10 min at 400×g. The remaining lower phase was dried under N2 and resuspended in 100 μl of 9:1 CHCl3 /MeOH. Fifty μl of each sample were counted directly by liquid acintillation spectrometry, and the remainder was applied to a 20×20 cm Silica 60A thin layer chromatography plate (Whatman). […] The region containing phosphatidic acid (as indicated by radiolabeled standards) and the remaining areas of each lane were scraped separately, and the radioactivity was estimated by liquid scintillation spectrometry. The amount of phosphatidic acid formed per reaction was calculated as [2(direct count)(PA cpm)(total lane cpm)]×[mole ATP/cpm]. R59959 was dissolved in dimethyl sulfoxide and added to relevant enzymatic reactions just prior to the addition of ATP.

DGKε = biological target: T2, DGKε (Homo sapiens, UniProt P52429); test: octyl glucoside/PS mixed-micelle assay of DGK activity, homogenates of DGKε-transfected COS-7 cells; format: biochemical; conditions: for inhibition of DGKε activity: 100 μm inhibitor, homogenates from transfected cells
T2 construct: a PCR product of the DGKε cDNA lacking the 3'-untranslated region and part of the 5'-untranslated region was amplified; expressed in transfected cells; host or cells: COS-7
T2 sequence (P52429 1-567): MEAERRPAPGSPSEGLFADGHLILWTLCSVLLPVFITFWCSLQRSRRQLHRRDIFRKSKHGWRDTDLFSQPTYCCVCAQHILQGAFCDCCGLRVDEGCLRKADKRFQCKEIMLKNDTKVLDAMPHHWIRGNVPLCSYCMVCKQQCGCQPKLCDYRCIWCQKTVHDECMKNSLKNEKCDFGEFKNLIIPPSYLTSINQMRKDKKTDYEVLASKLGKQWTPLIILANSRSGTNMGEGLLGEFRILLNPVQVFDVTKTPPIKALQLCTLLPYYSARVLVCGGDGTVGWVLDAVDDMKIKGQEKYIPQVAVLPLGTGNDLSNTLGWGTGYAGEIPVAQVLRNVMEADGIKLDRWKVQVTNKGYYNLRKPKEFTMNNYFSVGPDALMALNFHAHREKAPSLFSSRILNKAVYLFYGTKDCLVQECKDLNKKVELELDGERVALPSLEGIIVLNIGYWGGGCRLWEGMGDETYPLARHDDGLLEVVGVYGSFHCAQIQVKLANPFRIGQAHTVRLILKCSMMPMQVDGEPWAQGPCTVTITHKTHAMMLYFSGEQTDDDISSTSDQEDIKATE
Protocol: COS-7 Transfection and Assay of DGK Activity--COS-7 transfection was carried out using LipofectAMINE reagent (Life Technologies, Inc.), and all steps were followed by the protocol provided by the manufacturer. After 2.5 days, the cells were harvested and lysed by sonication (twice with 5 watts for 5 s at 4° C.) in the lysis buffer (0.1 ml/35 mm well) containing 20 mm Tris-HCL, pH 7.4, 0.25 m sucrose, 1 mm EDTA, 4 mm EGTA, 1 mm dithiothreitol, 1 mm phenylmethylsulfonyl fluoride, a 20 μg/ml concentration of each: leupeptin, pepstatin, aprotinin, and soybean trypsin inhibitor. Kai, M., Sakane, F., Imai, S., Wada, I., and Kanoh, H. (1994) J. Biol. Chem. 269, 18492-18498. The protein concentration of the cell homogenate was determined with the BCA protein assay reagent (Pierce). In two experiments, the homogenate was separated into soluble and membrane-bound fractions by centrifugation at 100,000×g for 60 min. (4° C.). The pellet was resuspended in lysis buffer, and both fractions were assayed for DGK activity.
Since the full-length cDNA of DGKε could not be expressed in COS-7 cells, a PCR product of the DGKε cDNA lacking the 3'-untranslated region and part of the 5'-untranslated region was amplified and cloned into pcDNA/Neo (Invitrogen). The forward primer (SEQ ID NO: 10):
The octyl glucoside/PS mixed-micelle assay of DGK activity was performed as described. Walsh, J. P., Suen, R., Lemaitre, R. N., and Glomset, J. A. (1994) J. Biol. Chem. 269, 21155-21164. In brief, the assay mixture contained 50 mm MOPS, pH 7.2, 100 mm NaCl, 20 mm MgCl2, 1 mm EGTA, 1 mm dithoiothreitol, 2 mm discylglycerol, 3.5 mm phosphatidylserine, 75 mm octyl-β-glucopyranoside, 500 μm [γ-^32 P] ATP, and 20 μg of cellular protein in a volume of 200 μl. The reaction was initiated by the addition of [γ-^32 P] ATP (20-30 μCi/μmol) and processed for 10 min at 24° C. […] The amount of phosphatidic acid formed per reaction was calculated by dividing the radioactivity in phosphatidic acid by the specific radioactivity of the ATP in the reaction.

[2] = test system: protein kinase M (PKM), catalytic fragment of mixed rat brain PKC isozymes; test: Phosphorylation of peptides by PKM (kinetics); format: biochemical; conditions: for Km: 10 minute reaction, 30° C., read-out: Km as substrate for PKM
Protocol: Phosphorylation of peptides and proteins--Peptides were phosphorylated by the purified catalytic fragment of mixed rat brain PKC isozymes (protein kinase M; PKM). In all cases involving kinetic measurements, the peptides were phosphorylated by PKM (1:120 dilution of frozen stock solution) at 30° C. All reactions were performed in the linear range of peptide phosphorylation, in an assay mixture containing 40 mM Hepes (pH 7.4), 0.25 mM EGTA, 12.5 mM MgCl2, 75 μM y-[^32 P]ATP, and various concentrations of peptides. In the peptide experiments, the reactions were stopped after 10 minutes by the addition of 1/5 vol of 5×SDS sample buffer, boiled for 5 minutes and then subjected to electrophoresis on 20% acrylamide gels. After the gels were dried, the phosphorylated peptides were localized by autoradiography, excised from the gel, and subjected to Cerenkov scintillation counting.

DGK.zeta. [3] = test: DAG kinase assay, homogenates of DGK.zeta.-transfected COS-7 cells; format: biochemical, human
Protocol: as §1, §2

For `CCCCC/C=C\C/C=C\C/C=C\C/C=C\CCCC(=O)O[C@@H](CO)COC(=O)CCCCCCCCCCCCCCCCC` [1-Stearoyl-2-arachidonyl-sn-glycerol], the “nmol phosphatidic acid/mg/h (DAG substrate specificity of DGK.zeta.)” value (from here on “nmol phosphatidic acid/mg/h”) (DGK.zeta. [1]) was 1106 ± 34 nmol phosphatidic acid/mg/h.

`CCCCCCCC/C=C\CCCCCCCC(=O)OC[C@H](CO)OC(=O)CCCCCCCCCCCCCCC` [1-Oleoyl-2-palmitoyl-sn-glycerol] was tested, and the “nmol phosphatidic acid/mg/h” value (DGK.zeta. [1]) was 856 ± 35 nmol phosphatidic acid/mg/h.

`CCCCCCCCCC(=O)OC[C@H](CO)OC(=O)CCCCCCCCC` [1,2-Dicapryl-sn-glycerol] was tested, and the “nmol phosphatidic acid/mg/h” value (DGK.zeta. [1]) was 1440 ± 42 nmol phosphatidic acid/mg/h.

In the case of `[Ca+2]` [calcium], the “effect of excess calcium on DGK.zeta. activity” value (DGK.zeta. [1]; 0.1-2 mm calcium added at start of reaction) is reported as “no increase in activity”.

For phosphatidylserine, the “effect of increased phosphatidylserine concentration on DGKε activity” value (DGKε; additional 3.5 mm phosphatidylserine added to reaction mixture) was “only slightly increased”.

For `CCCCCCCC/C=C\CCCCCCCC(=O)OC[C@H](CO)OC(=O)CCCCCCC/C=C\CCCCCCCC` [1,2-Dioleoyl-sn-glycerol], the “nmol phosphatidic acid/mg/h” value (DGK.zeta. [1]) was 1021 ± 9 nmol phosphatidic acid/mg/h.

For “KASKKKKRASFKRKSSKK [DGK peptide, 18 amino acid peptide corresponding to residues 256-273 of DGK.zeta]”, the Km ([2]; listed as native peptide) was ~0.5 µM, the Km [2] was 0.5 µM and the Hill constant ([2]; phosphorylation by PKM) was 0.7.

For `O=c1c2ccccc2[nH]c(=S)n1CCN1CCC(=C(c2ccc(F)cc2)c2ccc(F)cc2)CC1` [R59949], the “inhibition of DGKε activity” value (DGKε) was ~41%, the activity at 100 µM (DGK.zeta. [1]; 100 μm R59949, read-out: DGK.zeta. activity in presence of inhibitor) was 94% and the “DAG kinase activity of DGK.zeta.-transfected cells in presence of inhibitor” value (DGK.zeta. [1]; summary statement) was “not altered”.

In the case of `CCCCCCCC/C=C\CCCCCCCC(=O)OCC(O)COC(=O)CCCCCCC/C=C\CCCCCCCC` [1,3-Dioleoyl-sn-glycerol], the “nmol phosphatidic acid/mg/h” value (DGK.zeta. [1]) is reported as 110 ± 8 nmol phosphatidic acid/mg/h.

For `Cc1nc2sccn2c(=O)c1CCN1CCC(=C(c2ccccc2)c2ccc(F)cc2)CC1` [R59022], the “inhibition of DGKε activity” value (DGKε) was “approximately 11%”.

For “DGK.zeta.: human diacylglycerol kinase zeta, 928-amino acid protein (SEQ ID NO: 4)”, the DGK activity (DGK.zeta. [1]; 1,2-dicapryl-sn-glycerol substrate, typical experiment, FIG. 21) was 7.5 nmol/mg/min, the “increase in DGK activity compared to vector-transfected cells” value (DGK.zeta. [1]; 1,2-dioleoyl-sn-glycerol substrate, FIG. 7) was 267 fold and the catalytic activity (DGK.zeta. [3]; native vs ankyrin repeat-deleted (FLAG-tagged) DGK.zeta.) was 1764 nmol PA/mg/hr. It also gave a DGK.zeta. activity (DGK.zeta. [3]; native vs zinc finger deletion mutants, Table II) of 243 nmol PA/mg/hr and a Relative activity (DGK.zeta. [3]; relative to native DGK.zeta. = 100, Table II) of 100.

For `CCCCCCCC/C=C\CCCCCCCC(=O)O[C@@H](CO)COC(=O)CCCCCCCCCCCCCCCCC` [1-Stearoyl-2-oleoyl-sn-glycerol], the “nmol phosphatidic acid/mg/h” value (DGK.zeta. [1]) was 801 ± 13 nmol phosphatidic acid/mg/h.

With `CCCCCCCC/C=C\CCCCCCCC(=O)O[C@@H](CO)COC(=O)CCCCCCCCCCCCCCC` [1-Palmitoyl-2-oleoyl-sn-glycerol] the “nmol phosphatidic acid/mg/h” value (DGK.zeta. [1]) was 805 ± 8 nmol phosphatidic acid/mg/h.
